Experimental data: article PMC10145814 (Viruses, 2023)

Target: T1, PI4KB (Homo sapiens, UniProt Q9UBF8)
T1 construct: purified GST-PI4KB (PV5277, Thermo Fisher)
Assay type: biochemical

T1 sequence (Q9UBF8 2-816): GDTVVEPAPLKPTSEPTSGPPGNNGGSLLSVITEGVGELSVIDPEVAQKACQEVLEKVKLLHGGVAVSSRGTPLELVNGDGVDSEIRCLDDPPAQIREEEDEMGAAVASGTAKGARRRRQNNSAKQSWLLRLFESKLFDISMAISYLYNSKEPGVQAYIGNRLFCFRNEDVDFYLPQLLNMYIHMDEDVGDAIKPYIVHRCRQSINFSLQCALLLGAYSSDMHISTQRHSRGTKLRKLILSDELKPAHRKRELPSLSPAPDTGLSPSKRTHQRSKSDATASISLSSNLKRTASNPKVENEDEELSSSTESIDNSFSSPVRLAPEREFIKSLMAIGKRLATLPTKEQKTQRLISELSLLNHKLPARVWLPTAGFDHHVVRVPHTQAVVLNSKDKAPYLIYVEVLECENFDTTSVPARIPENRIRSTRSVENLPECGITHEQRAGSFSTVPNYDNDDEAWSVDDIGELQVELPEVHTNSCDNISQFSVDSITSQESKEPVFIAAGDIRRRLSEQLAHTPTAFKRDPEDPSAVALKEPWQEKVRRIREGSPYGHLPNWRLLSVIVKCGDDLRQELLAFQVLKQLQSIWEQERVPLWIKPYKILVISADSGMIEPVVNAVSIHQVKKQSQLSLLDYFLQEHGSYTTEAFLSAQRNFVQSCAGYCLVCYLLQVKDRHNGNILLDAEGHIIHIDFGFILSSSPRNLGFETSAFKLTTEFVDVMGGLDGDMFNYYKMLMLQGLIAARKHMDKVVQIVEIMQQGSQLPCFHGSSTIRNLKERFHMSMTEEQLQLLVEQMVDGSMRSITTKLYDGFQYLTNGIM

COc1cc(/C=C/C(=O)OC[C@H]2O[C@H](O[C@]3(COC(=O)/C=C/c4ccc(O)cc4)O[C@H](COC(=O)/C=C/c4ccc(O)cc4)[C@@H](O)[C@@H]3OC(=O)/C=C/c3ccc(O)cc3)[C@H](O)[C@@H](O)[C@@H]2O)ccc1O [VCB, vanicoside B]
IC50: 5 µM
